Laboratory results: patent US20260097060A1, “PHARMACEUTICAL COMPOSITION COMPRISING ENAVOGLIFLOZIN FOR PREVENTING OR TREATING CARDIOVASCULAR AGING DISEASES” (DAEWOONG PHARMACEUTICAL CO., LTD., priority 2022, published 2026)

What was measured:
[1] = test system: porcine coronary artery rings; experiment: Evaluation of vascular function (bradykinin-induced relaxation of coronary artery rings, organ chamber); details: for bradykinin concentration at which vasorelaxation was significantly increased compared to nanoplastics alone: nanoplastics + 1 μM test drug
Method: Vascular endothelial cells play an important role in maintaining vascular homeostasis, but senescence is known to cause vascular dysfunction. Therefore, vascular reactivity of vascular endothelial cells was evaluated to see whether enavogliflozin prevents vascular dysfunction caused by the exposure to nanoplastics. In addition, the evaluation was performed together with the competing material, empagliflozin, and thus their effects were compared.
Specifically, the left anterior descending coronary artery of the porcine heart was resected into rings with a size of 2 to 3 mm. An experiment was conducted with a control, a group treated with 10 µg/mL of nanoplastics, groups treated with […] of nanoplastics+different concentrations of enavogliflozin (0.01, 0.1, and 1 μM), and a group treated with 10 µg/mL of nanoplastics+[…] empagliflozin. The coronary artery rings were placed in Crabb's solution at 37° C. in an organ chamber (95% 02, 5% CO2) to measure changes in isometric tension. The viability of each coronary ring was confirmed by constant […] loading at 5 g for 90 minutes and repeated contractions with up to 80 mM KCl. After washing for 30 minutes, the coronary artery rings were constricted to approximately 80% (maximum contraction) using the thromboxane mimetic U46619 and treated with bradykinin. The relaxation rate of blood vessels in relation to the concentration of bradykinin was then calculated. The results are shown in the graph of FIG. 10.
For statistical data analysis, Prism 5.03 software (GraphPad Software Inc., San Diego, CA, USA) was used. The test results are expressed as the mean±standard error of the mean (SEM). The statistical method was to conduct a two-way ANOVA to verify the difference between groups, and a post hoc test for each type was performed using the verification method with the Bonferroni function. The significance level was set to be p<0.05.
Bradykinin is a biomaterial, and when a bradykinin receptor is activated, endothelial nitric oxide synthase (eNOS) is activated, releasing nitric oxide (NO) and relaxing blood vessels.

[2] = test system: cellular senescence markers p53 and p21; experiment: Expression of endothelial cell senescence markers (western blot); format: cell-based, porcine; details: nanoplastics + enavogliflozin 0.01, 0.1 and 1 μM, 24 hours
Method: The expression of cellular senescence markers p53 and p21 was confirmed in porcine coronary artery endothelial cells.
Specifically, the cells were seeded at 1×10^5 cells/well in a 6-well plate. The cells were cultured in DMEM containing 10% FBS, penicillin (100 U/mL), streptomycin (100 U/mL), and fungizone ([…]) in a CO2 incubator at 37° C. The cells were divided into a control, a group treated with 10 μg/mL of nanoplastics, and groups treated with the nanoparticles+different concentrations of enavogliflozin (0.01, 0.1, and 1 μM), and then the cells were treated with samples and incubated for 24 hours.
To lyse the porcine coronary artery endothelial cells, 1×RIPA buffer was added to each well and the cells were lysed for 10 minutes. The cells were scraped with a scraper and centrifuged at 14,000 rpm and 4° C. for 15 minutes. Protein quantification of the obtained cell lysate was measured using Bio-Rad DC protein reagent. Analysis was performed by equally loading 15 g of protein.
After reacting with p53 (1:1,000), p21 (1:1,000), and β-actin (1:1,000) as primary antibodies at 4° C. for 24 hours, the cells were washed 3 to 5 times with 1×TBS-T buffer for 10 minutes. […]
(§1) For statistical data analysis, Prism 5.03 software (GraphPad Software Inc., San Diego, CA, USA) was used. The test results are expressed as the mean±standard error of the mean (SEM). […]

[3] = test system: reactive oxygen species (ROS); experiment: Evaluation of oxidative stress (ROS, DCF-DA and DHE fluorescence); format: cell-based, porcine; details: 10 µg/mL nanoplastics + enavogliflozin 0.01, 0.1 and 1 μM
Method: Oxidative stress was measured using dihydroethidium (DHE) and 2′,7′-dichlorodihydrofluorescein diacetate (DCF-DA).
Specifically, porcine coronary artery endothelial cells were seeded at 1×10^4 cells/well in a black 96-well plate. The cells were divided into a control, a group treated with 10 µg/mL of nanoplastics, and groups treated with 10 µg/mL of the nanoparticles+different concentrations of enavogliflozin (0.01, 0.1, and 1 μM) to perform the experiment. The cells were incubated in DMEM containing 10% FBS, penicillin (100 U/mL), streptomycin (100 U/mL), and fungizone ([…]) in a CO2 incubator at 37° C. After 24-hour incubation, the amount of reactive oxygen species (ROS) produced was measured by fluorescent absorbance (excitation/emission 485/535 nm).
To measure the ROS produced also in the coronary artery rings, the coronary artery rings were treated with samples for each group, and immersed in a frame containing an OCT solution (Leica Biosystems) and frozen in liquid nitrogen. The frozen result was cut into […] sections using a cryotome, and the sections were stained with DHE (10 μM) and incubated at 37° C. for 45 minutes, washed with PBS, and then observed using a fluorescence microscope.
as §1

[4] = test system: Nox2 and p22phox, membrane catalytic subunits of NADPH oxidase; experiment: Expression of oxidative stress-associated markers (western blot); format: cell-based, porcine; details: nanoplastics + enavogliflozin 0.01, 0.1 and 1 μM, 24 hours
Method: In the porcine coronary artery endothelial cells, it is known that NADPH oxidase produces a peroxide in endothelial cells to cause cellular senescence and endothelial dysfunction. Oxidative stress in cells was assessed by measuring the expression of Nox2 and p22phox, which are membrane catalytic subunits of the NAPDH oxidase.
Specifically, the cells were seeded at 1×10^5 cells/well in a 6-well plate. The cells were incubated in DMEM containing 10% FBS, penicillin (100 U/mL), streptomycin (100 U/mL), and fungizone ([…]) in a CO2 incubator at 37° C. The cells were divided into a control, a group treated with 10 µg/mL of nanoplastics, and groups treated with nanoplastics+different concentrations of enavogliflozin (0.01, 0.1, and 1 μM), treated with a sample, and then incubated for 24 hours.
To lyse the porcine coronary artery endothelial cells, 1×RIPA buffer was added to each well and the cells were lysed for 10 minutes. The cells were scraped with a scraper and centrifuged at 14,000 rpm and 4° C. for 15 minutes. Protein quantification of the obtained cell lysate was measured using Bio-Rad DC protein reagent. Analysis was performed by equally loading […] of protein. […]
as §1

eNOS = experiment: Measurement of expression of eNOS (western blot); format: cell-based, porcine; details: nanoplastics + enavogliflozin 0.01, 0.1 and 1 μM, 24 hours
Method: Reduced eNOS expression is a common feature in endothelial senescence, and is known to cause endothelial dysfunction. Here, the expression of eNOS was measured, thereby confirming that enavogliflozin improves the damage to the endothelial function caused by the exposure to nanoplastics.
Specifically, the cells were seeded at 1×10^5 cells/well in a 6-well plate. The cells were cultured in DMEM containing 10% FBS, penicillin (100 U/mL), streptomycin (100 U/mL), and fungizone ([…]) in a CO2 incubator at 37° C. […]
To lyse the porcine coronary artery endothelial cells, 1×RIPA buffer was added to each well and the cells were lysed for 10 minutes. […] Protein quantification of the obtained cell lysate was measured using Bio-Rad DC protein reagent. […]
After eNOS (1:1,000) and 3-actin (1:1,000) as primary antibodies were reacted at 4° C. for 24 hours, the resulting product was washed 3 to 5 times with 1×TBS-T buffer for 10 minutes. […] Protein bands were treated with an ECL solution and detected using Amersham imager 680.
as §1

[5] = test system: porcine coronary artery rings and coronary artery-derived endothelial cells; experiment: Evaluation of β-galactosidase (SA-β-Gal) activity (X-gal staining); format: cell-based; details: 10 µg/mL nanoplastics + enavogliflozin 0.01, 0.1 and 1 μM, 24 hours, vs nanoplastics
Method: Senescence-related β-galactosidase (SA-β-Gal) activity is the characteristic of senescent cells, and used as a histochemical marker for senescence.
Specifically, the porcine coronary artery was cut into a size of 2 to 3 mm to form coronary artery rings. Next, the coronary artery rings were divided into a control, a group treated with 10 µg/mL of nanoplastics, and groups treated with 10 µg/mL of the nanoparticles+different concentrations of enavogliflozin (0.01, 0.1, and 1 μM) to perform the experiment. After 24-hour culture, the cells were fixed with 4% formaldehyde, and stained with an X-gal dye to allow a reaction for one day.
Subsequently, the coronary artery rings were immersed in an optimal cutting temperature (OCT) solution (Leica Biosystems) and cut to 10 μm sections using a cryotome at −25° C. and observed under a microscope. The results are shown in the photograph in FIG. 5. In addition, the evaluation of β-galactosidase activity in endothelial cells derived from the porcine coronary artery is as follows. […]
as §1

[6] = test system: porcine coronary artery endothelial cells; experiment: Evaluation of cell proliferation effect (MTS); format: cell-based; details: nanoplastics + enavogliflozin 0.01, 0.1 and 1 μM, 24 hours, vs nanoplastics
Method: Cell cycle arrest is one of the main features of cellular senescence. It was confirmed whether enavogliflozin could improve decreased proliferation of endothelial cells, that is, cellular senescence, caused by the exposure to nanoplastics.
Specifically, after extracting the porcine coronary artery, the porcine coronary artery was treated with collagenase for 20 minutes and centrifuged to obtain coronary artery endothelial cells. The cells were seeded at 1×10^4 cells/well in a 96-well plate. The cells were incubated in DMEM containing 10% FBS, penicillin (100 U/mL), streptomycin (100 U/mL), and fungizone ([…]) in a 5% CO2 incubator at 37° C. The cells were divided into a control, a group treated with 10 µg/mL of nanoplastics, and groups treated with the nanoparticles+different concentrations of enavogliflozin (0.01, 0.1, and 1 μM) to perform the experiment, and the cell proliferation effect was measured using a CellTiter 96 Aqueous One Solution Cell Proliferation Assay (Promega Corporation, USA) kit. Samples were treated and incubated for 24 hours, and treated with an MTS tetrazolium solution (20 μL/well) to allow a reaction for 3 hours, and then absorbance was measured at 490 nm using an Enspire Multilabel Reader (Perkin Elmer Ltd.).
For statistical data analysis, Prism 5.03 software (GraphPad Software Inc., San Diego, CA, USA) was used. […]

Pharmacokinetics (Tmax) = format: in vivo; details: blood, oral
[7] = Dissolution test (Korean Pharmacopoeia method 2, paddle method); format: physicochemical
Method: Since the dissolution rate of the active ingredient in the pharmaceutical composition affects the maximum blood concentration (Cmax) and the blood concentration-area under the blood concentration-time curve (AUC) when administering the drug, to achieve appropriate Cmax and AUC, it is important to adjust the dissolution rate of the pharmaceutical composition. Since enavogliflozin has a Tmax of 1 to 2 hours, the drug absorption rate in the stomach is considered important. The above dissolution rate was measured under the condition of the dissolved solution 1.2 in accordance with the dissolution test method 2 of the Korean Pharmacopoeia (paddle method). For specific conditions, refer to the following experimental examples.

SMILES	bradykinin concentration at which vasorelaxation was significantly increased compared to nanoplastics alone [1]	expression of p21 protein [2]	expression of p53 protein [2]	fluorescence intensity of DCF-DA (ROS production) [3]	fluorescence intensity of DHE (ROS production) [3]	bradykinin-induced vasorelaxation ([1]; 10 µg/mL nanoplastics + enavogliflozin 0.01, 0.1 and 1 μM, vs nanoplastics alone)	expression of Nox2 [4]	expression of p22phox [4]	eNOS expression (eNOS)	β-galactosidase (SA-β-Gal) activity [5]	cell proliferation [6]	Tmax (Pharmacokinetics (Tmax))	30-minute dissolution rate ([7]; average particle size of enavogliflozin)	5-minute dissolution rate ([7]; average particle size of enavogliflozin greater than 15 m)
OC[C@H]1O[C@@H](c2ccc(Cl)c(Cc3ccc(O[C@H]4CCOC4)cc3)c2)[C@H](O)[C@@H](O)[C@@H]1O [empagliflozin, reference compound]	≥ 30 nM													
OC[C@H]1O[C@@H](c2cc(Cc3ccc(C4CC4)cc3)c(Cl)c3c2CCO3)[C@H](O)[C@@H](O)[C@@H]1O [enavogliflozin]	≥ 0.3 nM	significantly decreased in a concentration-dependent manner	significantly decreased in a concentration-dependent manner	significantly decreased	significantly decreased	significantly increased	significantly decreased in a concentration-dependent manner	significantly decreased in a concentration-dependent manner	significantly increase	significantly reduced	improved	1 to 2 h	less than 80%	less than 40 % of the total content of enavogliflozin
